Results: patent US9648880B2, “Antifungal agents and uses thereof” (University of Massachusetts, priority 2012, dated 2017)

Key:
[1] = test system: Aspergillus fumigatus; assay: Aspergillus hyphal formation; format: cell-based; conditions: 50 μM and 100 μM; RPMI overnight
Experimental: FIGS. 26A-26D. Compound #4 inhibits hyphal formation of Aspergillus fumigatus. FIGS. 26A-26B are photographs showing hyphal development occurs normally in RPMI tissue culture media in the absence of treatment (FIG. 26A) and in the presence of 1% DMSO (control; FIG. 26B). Aspergillus hyphal development was inhibited in the presence of 50 μM and 100 μM compound #4 (FIGS. 26C and 26D, respectively).
Compound #4 was also tested for its inhibitory effect on the growth of Aspergillus fumigatus. Fresh Aspergillus fumigatus conidia (spores) were grown in RPMI tissue culture media overnight in the presence of 1% DMSO (control), 50 μM compound #4, 100 μM compound #4, or no treatment (control) using methods similar to those described in Ramirez-Ortiz et al. (Cell Host & Microbe 9:415-424, 2011). […] This is the first step in germination of the spores, and is required for pathogenesis.

[2] = test system: Cryptococcus gatti; assay: Cryptococcus proliferation; format: cell-based; conditions: 50 μM and 100 μM; 37° C., 18 hours
Experimental: FIGS. 27A and 27B. Compound #4 inhibits proliferation of Cryptococcus gatti.
Compound #4 was also tested for its inhibitory effect on the growth of Cryptococcus gatti. Cryptococcus cells were incubated at 37° C. in unsupplemented RPMI tissue culture media (+Glutamine−Phenol Red (Gibco #11835, Life Technologies, Grand Island, N.Y.; “RPMI”) or RPMI tissue culture media supplemented with 100 U/ml Penicillin/100 ug/ml Streptomycin (Gibco 100× Pen/Strep #151500-122), 1 mM NaPyruvate, and 10 mM HEPES pH 7.0 (“Af medium”) in the presence of 1% DMSO (control), 50 μM compound #4, or 100 μM compound #4, and cell numbers were counted after 18 hours. The assay was also performed with an untreated control.

[3] = test system: C. albicans SC5314 on excised murine vaginal mucosal tissue; assay: ex vivo mouse vaginal mucosal infection (VVC); conditions: 24 h
Experimental: FIG. 6A-6B. Effects on metazoan hosts. FIG. 6A is a graph showing the lifespan of C. elegans exposed to C. albicans treated with 12.5 μM compound #4 (lower graph line) or 12.5 μM fluconazole (upper graph line) compared to untreated (middle graph line). […] FIG. 6B is a series of photographs showing microscopic analysis of ex vivo vaginal mucosal biofilm formation. Mice were administered estrogen and vaginae were harvested. Tissues were either uninfected, or pretreated with DMSO or 50 μM compound #4, and then inoculated with C. albicans SC5314 (10^6 blastoconidia) and incubated for 24 h. Tissues were bisected and processed for scanning electron microscopy (SEM), or confocal microscopy (CM) after staining with Calcofluor to detect yeast (blue) and Concavalin A to visualize extracellular matrix (red). SEM images were taken at 1000× magnification, and CM images at 600× magnification.
In this assay, excised murine vaginal mucosal tissue is tested as a substrate for infection by Candida cells, providing a rapid and simple method for optimizing treatment conditions prior to in vivo infection assays. The other readout in the assay is a measure of the number of viable fungal cells, expressed as colony forming units (CFU).
These ex vivo infections were performed as described (Harriott, 2010).

[4] = test system: C. albicans SC5314-GFP; assay: GFP-based adhesion assay; format: cell-based; conditions: Candida albicans, SC5314, read-out: IC50 in the GFP-based adhesion assay
Experimental: To do this, we measured adhesion of cells plated and washed as before, but here using a C. albicans strain encoding GFP. This allowed us to measure adhesion both in a fluorescence plate reader and by microscopy (FIGS. 1D and 1E). Indeed, these GFP-based assays confirmed that all the compounds effective at 25 μM in the alamarBlue-based assay impair C. albicans adhesion to polystyrene. We conclude that our chemical screen detected multiple compounds that block adhesion to polystyrene, and that these can be assayed via multiple detection methods.
SC5314-GFP and edt1^−/−-GFP strains were pregrown overnight in SC+0.2% glucose media at 30° C., diluted into fresh SC+0.2% glucose media to a final concentration of 5×10^6 cells/ml (equivalent to 0.5 OD600/ml) and plated onto Immulon 2HB 96-well plates, with each well receiving 0.1 OD of cells. DMSO or compounds resuspended in DMSO were added to the desired final concentration (1% vol/vol of DMSO was maintained). Plates were then incubated for 4 hours at 37° C. […] Fluorescence was measured using a Synergy HT plate reader (BioTek) following addition of […] of PBS/well. For each experiment, untagged SC5314 was analyzed simultaneously to determine background fluorescence that was subtracted from the signal from each well.

[5] = test system: C. albicans hyphae formation; assay: filamentation assay (hyphal morphogenesis); format: cell-based, Candida albicans; conditions: 50 μM overlay; 37° C., 2 days
[6] = test system: SC5314; assay: growth rate in liquid culture; format: cell-based, Candida albicans; conditions: 50 μM; liquid YPD, 30° C.
Experimental: FIGS. 8A-8B. Characterization of compound #4. FIG. 8A is a graphs showing the IC50 for compound #4 measured using GFP adhesion assay. Assay performed as in FIG. 1D with the indicated concentrations of compound #4. Mean and standard deviations from 4 replicate well measurements are shown. FIG. 8B is a graph showing the effect of compound #4 on growth rate of SC5314 in liquid culture. SC5314 was grown in liquid YPD in a 30° C. shaker in the presence of 1% DMSO or compounds #4, 5, 6, 7 or 8 at 50 μM and the OD600 of the culture was measured at the indicated times. Cultures were also observed in the microscope, and we confirmed that the cells retained the budding yeast morphology during the course of this experiment.
We performed several additional experiments to characterize the ability of compound #4 to inhibit Candida adhesion to polystyrene. […] Second, we tested whether compound #4 affects C. albicans cell growth rate. […] Therefore, compound #4 slows C. albicans growth but is minimally toxic to human epithelial cells (FIG. 2C), properties that are desirable for candidate antifungal compounds.
Overnight cultures of […] were diluted to 0.1 OD/ml in fresh YPD and grown in a 30° C. shaker at 200 RPM in the presence of […] of compounds or 1% DMSO. OD 600 nm was measured during the time course to evaluate growth rate.

Q: `Cc1ccc(C(=O)N2CCN(c3ccc([N+](=O)[O-])cc3)CC2)cc1Cl` [Compound 4] was tested. Which hyphal formation [1] did it give?
A: The hyphal formation was “blocks hyphal formation at both concentrations tested”.

Q: And the “proliferation (cell numbers)” value [2]?
A: The value was “inhibited proliferation of Cryptococcus gatti at both concentrations tested”.

Q: And the CFU recovered ([3]; 50 μM pretreatment)?
A: The CFU recovered was “did not observe significant differences”.

Q: And the “extracellular matrix (Concavalin A staining)” value ([3]; 50 μM)?
A: The value was “still formed a carbohydrate-rich extracellular matrix”.

Q: And the “hyphae formation or ECM production” value ([3]; 50 μM)?
A: Its value is “only partially inhibits hyphae formation or ECM production”.

Q: And the IC50 [4]?
A: Its IC50 is about 3000 nM.

Q: And the “wrinkled colony morphology on solid Spider media” value [5]?
A: Its value is “abolished”.

Q: What about the “C. albicans cell growth rate (doubling time)” value [6] of the same compound?
A: Its value is “reduced the doubling time”.
